Test results taken from ChEMBL document CHEMBL4340561, “Application of the concept of oxime library screening by mass spectrometry (MS) binding assays to pyrrolidine-3-carboxylic acid derivatives as potential inhibitors of γ-aminobutyric acid transporter 1 (GAT1)” (Bioorg Med Chem, 2019).

What was measured:
[1] = target: T1, Sodium- and chloride-dependent GABA transporter 1 (Mus musculus, UniProt P31648); experiment: Inhibition of NO711 binding to mouse GAT1 expressed in HEK293 cell membranes assessed as reduction in NO711 binding at incubated for 4 hrs in presence of NO711 by LC-ESI-MS/MS analysis relative to control
[2] = target: T1, Sodium- and chloride-dependent GABA transporter 1; experiment: Inhibition of mouse GAT1 expressed in HEK293 cells assessed as reduction in [3H]GABA uptake preincubated for 25 mins followed by [3H]GABA addition and measured after 4 mins by liquid scintillation counting method; format: cell-based
[3] = target: T2, GABA transporter 4 (Mus musculus) (UniProt P31650); experiment: Inhibition of mouse GAT4 expressed in HEK293 cells assessed as remaining [3H]GABA uptake at 100 uM preincubated for 25 mins followed by [3H]GABA addition and measured after 4 mins by liquid scintillation counting method; format: cell-based
T2 sequence (whole entry): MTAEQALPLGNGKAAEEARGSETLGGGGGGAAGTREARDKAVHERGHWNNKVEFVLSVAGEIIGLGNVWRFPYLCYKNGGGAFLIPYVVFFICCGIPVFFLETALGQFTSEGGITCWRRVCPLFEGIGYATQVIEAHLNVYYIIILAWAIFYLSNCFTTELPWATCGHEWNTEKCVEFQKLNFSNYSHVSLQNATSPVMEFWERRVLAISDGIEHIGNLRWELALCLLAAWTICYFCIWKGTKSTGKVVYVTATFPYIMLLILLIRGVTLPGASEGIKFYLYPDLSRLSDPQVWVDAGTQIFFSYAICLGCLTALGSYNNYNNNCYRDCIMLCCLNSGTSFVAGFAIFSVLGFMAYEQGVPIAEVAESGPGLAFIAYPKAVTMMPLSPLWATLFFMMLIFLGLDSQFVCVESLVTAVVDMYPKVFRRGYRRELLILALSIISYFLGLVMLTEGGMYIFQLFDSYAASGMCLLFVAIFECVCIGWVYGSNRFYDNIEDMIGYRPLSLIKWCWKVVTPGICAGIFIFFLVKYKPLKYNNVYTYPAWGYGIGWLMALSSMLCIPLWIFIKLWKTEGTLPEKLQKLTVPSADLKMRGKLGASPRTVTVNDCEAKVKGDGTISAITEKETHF

GABA transporter 4 = target: T3, GABA transporter 4 (Mus musculus, UniProt P31650); experiment: Inhibition of mouse GAT4 expressed in HEK293 cells assessed as reduction in [3H]GABA uptake preincubated for 25 mins followed by [3H]GABA addition and measured after 4 mins by liquid scintillation counting method; format: cell-based
T3 sequence (P31650 whole entry): T2 sequence (whole entry)

[4] = test system: Sodium- and chloride-dependent GABA transporter 2 (Mus musculus); experiment: Inhibition of mouse GAT3 expressed in HEK293 cells assessed as remaining [3H]GABA uptake at 100 uM preincubated for 25 mins followed by [3H]GABA addition and measured after 4 mins by liquid scintillation counting method
[5] = test system: Sodium- and chloride-dependent betaine transporter (Mus musculus); experiment: Inhibition of mouse GAT2 expressed in HEK293 cells assessed as remaining [3H]GABA uptake at 100 uM preincubated for 25 mins followed by [3H]GABA addition and measured after 10 mins by liquid scintillation counting method relative to control

SMILES | Kd [1] | IC50 [2] | Activity [3] | IC50 (GABA transporter 4) | Ki [1] | Activity [4] | Activity [5]
O=C(O)C1=CCCN(CCON=C(c2ccccc2)c2ccccc2)C1 | 26.5 nM |  |  |  |  |  | 
O=C(O)C1CCNC1 (stereo not given) |  | 67600 nM |  |  |  |  | 
O=C(O)C1CCN(CCO/N=C/c2ccccc2-c2ccc(F)cc2Cl)C1 (stereo not given) |  | 4790 nM | 66% | ≥ 100000 nM | 692 nM | 75% | 52%
O=C(O)CC1CCNC1 (stereo not given) |  | 4070 nM |  |  |  |  | 

More lines, in order of falling IC50 [2], values ahead:

Kd [1] | IC50 [2] | Activity [3] | IC50 (GABA transporter 4) | Ki [1] | Activity [4] | Activity [5] | SMILES
 | 2290 nM | 56% | ≥ 100000 nM | 389 nM | 62% |  | O=C(O)C1CCN(CCO/N=C/c2ccccc2-c2ccc(Cl)cc2Cl)C1 (stereo not given)
 | 1910 nM | 89% | ≥ 100000 nM | 407 nM | 93% | 86% | COc1cccc(F)c1-c1ccccc1/C=N/OCCN1CCC(C(=O)O)C1 (stereo not given)
